Laboratory results taken from ChEMBL document CHEMBL3352452, “Phosphoinositide-3-kinase inhibitors: evaluation of substituted alcohols as replacements for the piperazine sulfonamide portion of AMG 511” (Bioorg Med Chem Lett, 2014).
The source made the active and inactive calls. The calls are words filed in the database; no cut-off is given here.

Columns and labels:
[1] = target: Serine/threonine-protein kinase mTOR (Homo sapiens, UniProt P42345); assay: Inhibition of recombinant N-terminally GST-tagged mTOR (1360 to 2549 aa) (unknown origin) assessed as inhibition of 27BP1 phosphorylation after 90 mins by TR-FRET assay
[2] = Intrinsic clearance in rat liver microsomes at 1 uM after 30 mins; assay type: ADME; settings: read-out: CLH
[3] = Intrinsic clearance in human liver microsomes at 1 uM after 30 mins; assay type: ADME; settings: read-out: CLH
[4] = target: PI3-kinase p110-alpha/p85-alpha (Homo sapiens, UniProt P42336); assay: Inhibition of human N-terminal poly-His tagged p110 alpha/ p85alpha expressed in Sf9 Baculovirus system after 20 mins by AlphaScreen assay
[5] = Inhibition of PI3K-mediated Akt S473 phosphorylation in human U87MG cells after 2 hrs by cell-based assay; design: species or system U-87MG ATCC; settings: U-87 MG
[6] = Terminal half life in Sprague-Dawley rat at 1 mg/kg, iv and 2 mg/kg, po; assay type: ADME, organism-based; settings: in vivo, read-out: beta t1/2 (converted)
[7] = Fraction unbound in Sprague-Dawley rat plasma at 1 mg/kg, iv and 2 mg/kg, po; assay type: ADME, organism-based
[8] = Volume of distribution at steady state in Sprague-Dawley rat at 1 mg/kg, iv and 2 mg/kg, po; assay type: ADME, organism-based; settings: in vivo, read-out: Vdss
[9] = Clearance in Sprague-Dawley rat at 1 mg/kg, iv and 2 mg/kg, po; assay type: ADME, organism-based; settings: in vivo
Mus musculus [10] = assay: Inhibition of HGF-induced PI3K-mediated Akt phosphorylation at Ser473 in female CD1 nude mouse liver at 10 to 30 mg/kg, po administered 6 hrs prior HGF treatment measured after 5 mins by electrochemical luminescence immunoassay; assay type: functional, organism-based
Mus musculus [11] = assay: Inhibition of HGF-induced PI3K-mediated Akt phosphorylation at Ser473 in female CD1 nude mouse liver compound administered orally 6 hrs prior HGF treatment measured after 5 mins by electrochemical luminescence immunoassay; assay type: functional, organism-based
[12] = Oral bioavailability in Sprague-Dawley rat at 2 mg/kg; assay type: ADME, organism-based; settings: in vivo
P-gp = assay: Efflux ratio of permeability across pig LLC-PK1 cells stably over-expressing rat P-gp at 5 uM; assay type: ADME, cell-based, Sus scrofa

Chain of PI3-kinase p110-alpha/p85-alpha (P27986 whole entry): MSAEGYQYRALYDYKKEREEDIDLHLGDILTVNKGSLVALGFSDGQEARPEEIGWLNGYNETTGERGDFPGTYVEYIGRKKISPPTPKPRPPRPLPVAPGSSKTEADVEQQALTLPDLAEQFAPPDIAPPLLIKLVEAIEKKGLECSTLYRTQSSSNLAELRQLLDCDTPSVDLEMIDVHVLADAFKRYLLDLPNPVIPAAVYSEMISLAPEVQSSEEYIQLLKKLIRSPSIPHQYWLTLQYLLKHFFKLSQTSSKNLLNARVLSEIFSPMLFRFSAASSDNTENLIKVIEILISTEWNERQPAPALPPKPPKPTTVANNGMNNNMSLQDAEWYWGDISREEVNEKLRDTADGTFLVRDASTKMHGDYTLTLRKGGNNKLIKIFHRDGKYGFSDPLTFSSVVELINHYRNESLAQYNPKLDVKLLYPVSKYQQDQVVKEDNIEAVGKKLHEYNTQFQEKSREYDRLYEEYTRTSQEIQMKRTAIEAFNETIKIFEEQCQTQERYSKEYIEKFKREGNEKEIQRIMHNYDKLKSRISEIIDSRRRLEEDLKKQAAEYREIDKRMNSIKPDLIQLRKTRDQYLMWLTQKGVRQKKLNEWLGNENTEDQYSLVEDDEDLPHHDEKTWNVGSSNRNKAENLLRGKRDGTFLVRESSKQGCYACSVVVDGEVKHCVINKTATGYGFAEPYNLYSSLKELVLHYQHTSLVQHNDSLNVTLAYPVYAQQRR
Chain of PI3-kinase p110-alpha/p85-alpha (P42336 whole entry): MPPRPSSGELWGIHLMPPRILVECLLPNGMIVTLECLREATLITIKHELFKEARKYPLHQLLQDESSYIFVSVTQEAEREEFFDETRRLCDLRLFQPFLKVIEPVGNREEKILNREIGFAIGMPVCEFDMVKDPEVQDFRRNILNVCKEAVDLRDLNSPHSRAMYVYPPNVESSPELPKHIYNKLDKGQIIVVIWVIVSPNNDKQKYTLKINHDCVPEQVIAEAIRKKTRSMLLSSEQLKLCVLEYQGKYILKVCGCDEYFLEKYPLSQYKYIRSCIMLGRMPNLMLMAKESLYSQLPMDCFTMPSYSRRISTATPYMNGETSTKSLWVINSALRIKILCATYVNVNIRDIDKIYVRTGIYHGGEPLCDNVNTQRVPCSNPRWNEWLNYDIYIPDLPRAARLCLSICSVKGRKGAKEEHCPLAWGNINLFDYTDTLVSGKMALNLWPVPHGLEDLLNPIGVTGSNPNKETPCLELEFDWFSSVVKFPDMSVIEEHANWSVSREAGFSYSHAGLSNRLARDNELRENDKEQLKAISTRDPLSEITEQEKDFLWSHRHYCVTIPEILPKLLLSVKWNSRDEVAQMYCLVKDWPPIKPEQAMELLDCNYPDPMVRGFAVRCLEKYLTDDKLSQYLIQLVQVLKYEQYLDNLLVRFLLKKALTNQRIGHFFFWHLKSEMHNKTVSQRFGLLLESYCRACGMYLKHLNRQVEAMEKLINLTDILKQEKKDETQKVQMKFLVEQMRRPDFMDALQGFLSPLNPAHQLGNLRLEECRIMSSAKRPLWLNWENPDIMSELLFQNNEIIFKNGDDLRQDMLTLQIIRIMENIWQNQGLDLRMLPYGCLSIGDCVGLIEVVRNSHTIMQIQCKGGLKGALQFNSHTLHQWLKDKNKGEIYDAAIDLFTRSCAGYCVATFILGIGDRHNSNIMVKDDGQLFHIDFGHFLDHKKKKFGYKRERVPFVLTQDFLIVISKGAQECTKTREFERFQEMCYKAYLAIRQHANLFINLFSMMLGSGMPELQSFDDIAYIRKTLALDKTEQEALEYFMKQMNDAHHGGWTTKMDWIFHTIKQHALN

SMILES	IC50 [1] [nM]	microsomal CLint at 1 µM [2] [µL/min/mg]	microsomal CLint at 1 µM [3] [µL/min/mg]	Ki [4] [nM]	IC50 [5] [nM]	further results
COc1ncc(Nc2ncc(C(C)(C)O)cc2-c2nc(C)nc(N)n2)cc1C	7800	22	< 14	118	49	
COc1ncc(Nc2ncc(C(C)(C)O)cc2-c2nc(C)nc(N)n2)cc1F	7800	23	< 14	23		half-life [6]: 3.1 h; fraction unbound [7]: 0.06; Vd [8]: 1.7 L/kg; clearance [9]: 18.3 mL/min/kg; inhibition (Mus musculus [10]): Active; inhibition (Mus musculus [11]): Dose-dependent effect; bioavailability [12]: 37%
COc1ncc(Nc2ncc(C(C)(C)O)cc2-c2nc(C)nc(N)n2)cc1C(F)(F)F	> 25000					
COc1ncc(Nc2ncc([C@@H](C)N3CCN(S(C)(=O)=O)CC3)cc2-c2nc(C)nc(N)n2)cc1F		20				half-life [6]: 3.3 h; fraction unbound [7]: 0.08; clearance [9]: 7.5 mL/min/kg
COc1cncc(Nc2ncc(C(C)(C)O)cc2-c2nc(C)nc(N)n2)c1	2100	19	17	89		
COc1ncc(Nc2ncc(C3(O)CC3)cc2-c2nc(C)nc(N)n2)cc1F	3700	79	39	16	18	
COc1ncc(Nc2ncc(C(C)(C)O)cc2-c2nc(C)nc(N)n2)cc1C(C)C	> 25000			153	414	
COc1ncc(Nc2ncccc2-c2nc(C)nc(N)n2)cc1F	> 22000	36	99	48		
COc1ncc(Nc2ncc([C@@H](C)CO)cc2-c2nc(C)nc(N)n2)cc1F	> 15000	37	< 14	40		
Cc1nc(N)nc(-c2cc(C(C)(C)O)cnc2Nc2cncc(S(=O)(=O)c3ccccc3)c2)n1	6700			224		
COc1ccc(Nc2ncc(C(C)(C)O)cc2-c2nc(C)nc(N)n2)cn1	790	19	< 14	89	48	
COc1ncc(Nc2ncc([C@H](C)O)cc2-c2nc(C)nc(N)n2)cc1F	> 25000	< 14	< 14	48	26	
COc1ncc(Nc2ncc([C@H](C)CO)cc2-c2nc(C)nc(N)n2)cc1F	11100	36	14	26		
COc1ncc(Nc2ncc(C(C)(C)CO)cc2-c2nc(C)nc(N)n2)cc1F	> 17000	34	34	40		
Cc1nc(N)nc(-c2cc(C(C)(C)O)cnc2Nc2cncc(S(C)(=O)=O)c2)n1	> 16000	< 14	< 14		1160	
COc1cc(Nc2ncc(C(C)(C)O)cc2-c2nc(C)nc(N)n2)cnc1OC	10600	< 14	< 14	30	10	efflux ratio at 5 µM (P-gp): 25; half-life [6]: 4.8 h; Vd [8]: 4.2 L/kg; clearance [9]: 21.7 mL/min/kg
Cc1nc(N)nc(-c2cc(C(C)(C)O)cnc2Nc2cncc(F)c2)n1	2500	15	< 14	87		
COc1ncc(Nc2ncc([C@@H](C)O)cc2-c2nc(C)nc(N)n2)cc1F	> 25000	45	22	40	20	
CCc1cc(Nc2ncc(C(C)(C)O)cc2-c2nc(C)nc(N)n2)cnc1OC	15800			469	470	
COc1ncc(Nc2ncc(C(O)C(F)(F)F)cc2-c2nc(C)nc(N)n2)cc1F (racemic)	2200	34	18	30		
COc1ncc(Nc2ncc(CO)cc2-c2nc(C)nc(N)n2)cc1F	> 15000	51		56	44	
